# Experimental data as given in patent US10016424B2, “Method and pharmaceutical composition for use in the treatment of epilepsy” (INSERM (Institut National de la Sante et de la Recherche …, priority 2013, dated 2018).
# What was measured:
# [1] = tested on: bursts driven by recurrent mossy fibers in DG; assay: Antidromically evoked bursts (coastline burst index) in dentate gyrus of acute slices from pilocarpine-treated mice; assay type: cell-based, mouse; conditions: WT mice; bath application
# Method: All experiments were approved by the Institut National de la Santé et de la Recherche Médicale animal care and use committee of May 29, 2001 (2001-464) and the European community council directive of Nov. 24, 1986 (86/609/EEC). Mice (FVB/N background) had access to food and water ad libitum and were housed under a 12 h light/dark cycle at 22-24° C. Male GluK2−/− and WT mice (P60-80) were given scopolamine (1 mg/kg) subcutaneously (s.c.) 15 minutes prior to s.c. administration of pilocarpine (200-600 mg/kg). A ramp protocol was used whereby animals were given an initial dose of 200 mg/kg followed by half-doses every 30 minutes until seizures appeared. […] Diazepam (10 mg/kg) was administered 45 minutes after onset of SE. […]
# Cultured or acute slices were individually transferred to a recording chamber maintained at 30-32° C. and continuously perfused (2 ml/min) with oxygenated normal or adapted ACSF containing 5 μM gabazine. […] Signals were analyzed off-line using Clampfit 9.2 (PClamp) and MiniAnalysis 6.0.1 (Synaptosoft, Decatur, Ga.). In organotypic slices, spontaneous EPSCs were recorded at the reversal potential for GABAergic currents (Vh=−70 mV). To characterize the nature and kinetic properties of fast and slow events, miniature EPSCs (mEPSCs) evoked in Sr2+ conditions (external Ca2+ was substituted with 1.2 mM Sr2+) were recorded in DGCs from GluK2−/− and WT slices. […]
# [2] = molecular target: GluK2/GluK5 receptors (Homo sapiens, UniProt Q13002+Q16478); conditions: cited from earlier work
# [3] = molecular target: homomeric GluK2 receptors (Homo sapiens, UniProt Q13002); conditions: cited from earlier work
# Chain of homomeric GluK2 receptors (Q13002 32-908): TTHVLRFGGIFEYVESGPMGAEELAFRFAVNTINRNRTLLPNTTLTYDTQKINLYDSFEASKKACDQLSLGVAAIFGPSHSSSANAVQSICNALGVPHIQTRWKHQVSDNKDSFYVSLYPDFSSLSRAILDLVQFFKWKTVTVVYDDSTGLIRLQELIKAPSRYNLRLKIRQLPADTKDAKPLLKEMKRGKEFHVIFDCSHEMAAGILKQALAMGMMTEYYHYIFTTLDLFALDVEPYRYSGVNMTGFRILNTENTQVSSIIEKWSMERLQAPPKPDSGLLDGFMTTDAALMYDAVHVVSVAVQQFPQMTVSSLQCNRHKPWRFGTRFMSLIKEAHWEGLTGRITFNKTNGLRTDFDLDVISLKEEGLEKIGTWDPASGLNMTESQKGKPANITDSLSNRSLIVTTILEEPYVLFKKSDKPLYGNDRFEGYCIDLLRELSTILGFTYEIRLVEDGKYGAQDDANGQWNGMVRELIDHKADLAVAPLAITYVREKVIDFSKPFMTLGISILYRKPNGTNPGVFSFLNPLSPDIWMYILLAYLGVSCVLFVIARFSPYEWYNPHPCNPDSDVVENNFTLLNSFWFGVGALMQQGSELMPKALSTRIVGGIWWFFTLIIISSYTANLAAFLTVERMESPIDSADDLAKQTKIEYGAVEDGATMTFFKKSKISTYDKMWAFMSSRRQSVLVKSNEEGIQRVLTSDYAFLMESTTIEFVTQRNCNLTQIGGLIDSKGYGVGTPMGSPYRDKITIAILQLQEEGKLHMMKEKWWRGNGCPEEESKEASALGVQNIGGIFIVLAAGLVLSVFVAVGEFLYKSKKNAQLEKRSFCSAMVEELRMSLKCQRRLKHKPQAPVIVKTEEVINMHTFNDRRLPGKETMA
# Chain of GluK2/GluK5 receptors (Q13002 32-908): as above
# Chain of GluK2/GluK5 receptors (Q16478 15-980): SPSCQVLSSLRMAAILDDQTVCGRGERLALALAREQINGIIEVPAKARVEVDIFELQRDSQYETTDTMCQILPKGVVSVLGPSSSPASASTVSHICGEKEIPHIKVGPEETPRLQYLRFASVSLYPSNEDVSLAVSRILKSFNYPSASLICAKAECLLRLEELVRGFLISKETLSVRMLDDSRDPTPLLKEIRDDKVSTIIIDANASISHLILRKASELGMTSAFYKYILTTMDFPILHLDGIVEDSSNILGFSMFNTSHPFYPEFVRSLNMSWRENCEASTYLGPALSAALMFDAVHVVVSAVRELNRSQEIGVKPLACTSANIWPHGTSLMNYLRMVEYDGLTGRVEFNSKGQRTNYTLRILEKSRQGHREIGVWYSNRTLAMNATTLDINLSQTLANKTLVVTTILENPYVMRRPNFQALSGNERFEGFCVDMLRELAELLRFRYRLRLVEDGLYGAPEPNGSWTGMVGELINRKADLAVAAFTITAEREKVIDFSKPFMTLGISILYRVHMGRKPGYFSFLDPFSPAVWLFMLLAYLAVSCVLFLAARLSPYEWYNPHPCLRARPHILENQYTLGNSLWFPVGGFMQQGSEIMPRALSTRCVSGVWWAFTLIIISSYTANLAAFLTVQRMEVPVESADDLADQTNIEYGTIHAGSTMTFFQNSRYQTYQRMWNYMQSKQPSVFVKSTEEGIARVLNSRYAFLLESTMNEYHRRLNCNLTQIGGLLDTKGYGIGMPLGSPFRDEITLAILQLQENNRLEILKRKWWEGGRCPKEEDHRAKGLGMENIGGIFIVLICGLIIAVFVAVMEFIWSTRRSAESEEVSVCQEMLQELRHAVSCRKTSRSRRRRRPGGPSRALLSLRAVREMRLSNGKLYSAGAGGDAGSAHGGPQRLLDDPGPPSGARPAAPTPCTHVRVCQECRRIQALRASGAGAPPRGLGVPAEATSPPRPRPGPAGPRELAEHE
smiles,measurement,setting,value
Cc1cn(C[C@H](N)C(=O)O)c(=O)n(Cc2ccsc2C(=O)O)c1=O [UBP310],reduction of evoked bursts (coastline burst index),[1],55%
same,inhibition of heteromeric GluK2/GluK5 receptors,[2],inhibits GluK2/GluK5
same,inhibition of homomeric GluK2 receptors,[3],not homomeric GluK2 receptors
